Literature values as cited in patent US20090123919A1, “Diagnosing Pathological Conditions Using Interallelic Epigenetic Variations” (Allelis Diagnostics Ltd., priority 2005, published 2009).

Tested on: aneuploid genotypes
Conditions: in the presence of 5-azacytidine, an inhibitor of DNA methylation

Nc1ncn([C@@H]2O[C@H](CO)[C@@H](O)[C@H]2O)c(=O)n1 [5-azacytidine]
loss of the inherent temporal order of allelic replication: can be reversed
